Test results from BindingDB's records for doi:10.1021/jm200999f (Corning, 2011).

Target: G-protein coupled receptor 35 (Homo sapiens, UniProt Q9HC97)
Experiment: Antagonist activity at GPR35 in human HT-29 cells assessed as inhibition of zaprinast-induced DMR by dynamic mass redistribution assay

Sequence of G-protein coupled receptor 35 (Q9HC97 whole entry): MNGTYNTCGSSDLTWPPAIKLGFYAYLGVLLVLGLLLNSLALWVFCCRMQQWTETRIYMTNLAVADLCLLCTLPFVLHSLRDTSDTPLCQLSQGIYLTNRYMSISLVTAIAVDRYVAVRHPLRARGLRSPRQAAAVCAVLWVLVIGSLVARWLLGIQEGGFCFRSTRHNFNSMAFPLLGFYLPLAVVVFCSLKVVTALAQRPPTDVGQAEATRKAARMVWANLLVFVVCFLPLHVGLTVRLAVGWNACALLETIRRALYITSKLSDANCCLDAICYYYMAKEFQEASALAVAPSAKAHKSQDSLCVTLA

IC50: 10.5 µM
Compound: CCCOc1ccccc1-c1nc2nn[nH]c2c(=O)[nH]1 [5-(2-propoxyphenyl)-2H,3H,7H-[1,2,3]triazolo[4,5-d]pyrimidin-7-one]
